# Measurements: US9561276B2, “Method of treating onychomycosis” (DUSA PHARMACEUTICALS, INC., priority 2012, dated 2017)
# Counter-ions that a name gives are not always drawn.
# What was measured:
# [1] = system: onychomycosis of the toenail; settings: in vivo; cited from earlier work
# acne lesions = settings: in vivo; cited from earlier work
# mouse skin = settings: cited from earlier work
# [2] = system: onychomycosis of the toenail; experiment: ALA-based PDT of onychomycosis with 10 day delay before red light (Example 1)
# Procedure: A 5 percent ALA solution was prepared by dilution of 20 percent ALA Topical Solution (Levulan® Kerastick® (aminolevulinic acid HCl) for Topical Solution, 20%). The ALA solution was then applied to a healthy volunteer suffering from mild to moderate onychomycosis involving the hallux (proximal or big toe) toenail and the second toenail of the left foot. The ALA solution was applied liberally to the nail surface and the periungual skin areas. The entire toe was wrapped in an occlusive dressing (Tegaderm®) for 12 hours. Twenty-four hours post ALA application, the treated area was examined for porphryin fluorescence using a long wave UV light (Wood's Light) as an excitation source.
# The subject was instructed to avoid light exposure to the treated toes. Fluorescence evaluation was performed again 10 days post ALA application.
# The subject was then treated with 100 Joules/cm^2 of red light using the Sciencetech 7500 illuminator, causing an activation reaction.
# The subject was again instructed to avoid light exposure to the treated toes. Follow up evaluations were performed 5 and 20 days post light treatment (15 and 30 days post ALA application).
# onychomycosis = settings: cited from earlier work
# [3] = 100 Joules/cm^2 red light 10 days post ALA
Structure (SMILES),local adverse reaction [1],time until ability of light to specifically excite protoporphyrin IX disappeared (acne lesions) [h],time for protoporphyrin levels to return to near pretreatment baseline (mouse skin),time to peak protoporphyrin IX concentration (mouse skin),"sensation during light treatment, proximal toe [2, 3]","sensation during light treatment, second toe [2, 3]","local reaction (edema, redness), proximal toe ([2]; 5 days post light treatment)","local reaction (redness), second toe ([2]; 5 days post light treatment)",appearance of treated toes ([2]; 20 days after exposure to the activating red light),adverse effects associated with the treatment ([2]; noted by subject),"adverse events unrelated to the treatment site (onychomycosis; in vivo, po)","complete clearance (onychomycosis; oral, complete course of treatment (every day for three months))"
"NCC(=O)CCC(=O)O [ALA, aminolevulinic acid]",redness and edema (swelling),≤ 24,about 18 hours,about six,only mild tingling and slight stinging,little to no sensation,"only slight edema in the area around the nail plate, and mild redness of the nail bed itself",only slight redness in the nail bed,both treated toes appeared normal,no adverse effects,,
"CN(C/C=C/C#CC(C)(C)C)Cc1cccc2ccccc12 [terbinafine, terbinafine hydrochloride]",,,,,,,,,,,"gastrointestinal disorders, rashes, disruption of the sense of taste, and liver disorders",only a minority of cases
